Measured values as given in the NIST ThermoML archive (doi:10.1021/je0500330).

Key:
[1] = Liquid; for speed of sound / mass density: 298.15 K, 101.33 kPa; for speed of sound: Sing-around technique in a fixed-path interferometer; for mass density: Vibrating tube method
[2] = refractive index (Na D-line) (dimensionless); details: 298.15 K; 101.33 kPa; Liquid; Standard Abbe refractometry
[3] = refractive index (Na D-line) (dimensionless); xn = mol fraction of the nth substance listed; details: 298.15 K, 101.3 kPa, Liquid
[4] = xn = mol fraction of the nth substance listed; details: 298.15 K, 101.3 kPa, Liquid

CCC(C)CO (centres undefined) [2-methyl-1-butanol]
Details	mass density [kg/m3]	refractive index	speed of sound [m/s]
[1]	814.87	–	1253
[2]	–	1.40872	–

[1]
Details	vapor or sublimation pressure [kPa]
401.58 K	101.3
401.86 K	101.3

CCC(C)CO (centres undefined) [2-methyl-1-butanol] + CCO
Details	mass density, [4] [kg/m3]	refractive index, [3]	speed of sound, [4] [m/s]
x2 = 0.0486	814.11	1.40734	1247.7
x2 = 0.1013	813.23	1.40583	1245
x2 = 0.1523	812.31	1.40424	1241.4
x2 = 0.1987	811.39	1.40277	1237.6
x2 = 0.2503	810.38	1.40112	1233.6
x2 = 0.3004	809.33	1.39926	1229.6
x2 = 0.3486	808.22	1.39756	1225.3
x2 = 0.4003	807.02	1.39549	1221
x2 = 0.4502	805.74	1.39341	1215.9
x2 = 0.5004	804.41	1.3912	1210.5
x2 = 0.5502	803.01	1.38899	1205.4
x2 = 0.6004	801.43	1.38636	1199.4
x2 = 0.6503	799.81	1.38373	1193.1
x2 = 0.7	798.1	1.38109	1186.9
x2 = 0.8009	794.32	1.37475	1173
x2 = 0.8503	792.34	1.37134	1166
x2 = 0.9002	790.13	1.36758	1158.2
x2 = 0.9503	787.77	1.36358	1150.2

CCC(C)CO (centres undefined) [2-methyl-1-butanol] + CO
Details	mass density, [4] [kg/m3]	refractive index, [3]	speed of sound, [4] [m/s]
x2 = 0.0485	814.3	1.40702	1250.7
x2 = 0.1016	813.63	1.40511	1246.7
x2 = 0.1543	812.9	1.40324	1242.6
x2 = 0.1987	812.22	1.40162	1238.7
x2 = 0.2528	811.35	1.39907	1233.9
x2 = 0.3017	810.5	1.39712	1229
x2 = 0.3496	809.49	1.39461	1223
x2 = 0.4005	808.36	1.39181	1217
x2 = 0.4506	807.25	1.38875	1210.7
x2 = 0.4987	806.12	1.38569	1204.2
x2 = 0.5502	804.84	1.38222	1197.2
x2 = 0.6003	803.4	1.37832	1188.8
x2 = 0.6487	801.91	1.37416	1180.7
x2 = 0.7003	800.27	1.36946	1171.5
x2 = 0.7504	798.44	1.3642	1162.7
x2 = 0.8002	796.5	1.35846	1151.4
x2 = 0.8503	794.35	1.35214	1142.2
x2 = 0.9004	791.96	1.34482	1131.5
x2 = 0.9503	789.39	1.33618	1120.5

CCO [ethanol]
Details	mass density [kg/m3]	refractive index	speed of sound [m/s]
[1]	785.36	–	1143
[2]	–	1.35916	–

Details	vapor or sublimation pressure [kPa]
[1], 351.5 K	101.3

CO [methanol]
Details	mass density [kg/m3]	refractive index	speed of sound [m/s]
[1]	787.14	–	1102
[2]	–	1.32667	–

Details	vapor or sublimation pressure [kPa]
[1], 337.65 K	101.3
